Experimental data as given in the supplement of paper PMC10331698.
± gives the standard deviation of the averaged measurements.

Key:
Experiment in all cases: level (log10 ratio to DMSO vehicle control); higher = higher biomarker level / cell amount than vehicle control
Conditions in all cases: in DMSO
[1] = compound: O=S(=O)(F)C(F)(F)C(F)(F)C(F)(F)C(F)(F)C(F)(F)C(F)(F)C(F)(F)C(F)(F)F [Perfluorooctanesulfonyl fluoride]
Experimental: (§1)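 BioMAP Diversity Plus panel of 12 human primary cell co-culture systems (3C, 4H, LPS, SAg, BT, BF4T, BE3C, CASM3C, HDF3CGF, KF3CT, MyoF, Mphg). Compounds were added 1 h before stimulation and left for 24 h (MyoF 48 h; BT 72 h for soluble read-outs or 6 d for IgG). Biomarkers were read by ELISA, cytotoxicity by SRB, PBMC viability and proliferation by Alamar Blue. Each well value was divided by the mean of 8 DMSO control wells on the same plate and log10 transformed; duplicate blinded samples were tested at 4 concentrations.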

[2] = compound: FC(F)(F)C(F)(F)CNCC(F)(F)C(F)(F)F [Bis(1H,1H-perfluoropropyl)amine]
Experimental: as §1

Hexafluoroamylene glycol = compound: OCC(F)(F)C(F)(F)C(F)(F)CO [Hexafluoroamylene glycol]
Experimental: as §1

[3] = compound: O=S(=O)(Cl)C(F)(F)C(F)(F)C(F)(F)C(F)(F)C(F)(F)C(F)(F)C(F)(F)C(F)(F)F [Perfluoro-1-octanesulfonyl chloride]
Experimental: as §1

[4] = compound: O=C(O)C=CC(F)(C(F)(F)F)C(F)(F)F [3-(Perfluoroisopropyl)-2-propenoic acid]
Experimental: as §1

[5] = compound: O=S(=O)(O)C(F)(F)C(F)(F)C(F)(F)C(F)(F)C(F)(F)C(F)(F)C(F)(F)C(F)(F)C(F)(F)C(F)(F)F [Sodium perfluorodecanesulfonate]
Experimental: as §1

| Test System | level (log10) ([1]; 6700 nM) | level (log10) ([1]; 20000 nM) | level (log10) ([1]; 60000 nM) | level (log10) ([2]; 6700 nM) | level (log10) ([2]; 20000 nM) | level (log10) ([2]; 60000 nM) | level (log10) (Hexafluoroamylene glycol; 6700 nM) | level (log10) (Hexafluoroamylene glycol; 20000 nM) | level (log10) (Hexafluoroamylene glycol; 60000 nM) | level (log10) ([3]; 6700 nM) | level (log10) ([3]; 20000 nM) | level (log10) ([3]; 60000 nM) | level (log10) ([4]; 6700 nM) | level (log10) ([4]; 20000 nM) | level (log10) ([4]; 60000 nM) | level (log10) ([5]; 1500 nM) | level (log10) ([5]; 4400 nM) | level (log10) ([5]; 13000 nM) | level (log10) ([5]; 40000 nM) |
| --- | --- | --- | --- | --- | --- | --- | --- | --- | --- | --- | --- | --- | --- | --- | --- | --- | --- | --- | --- |
| KF3CT:TIMP-2 | -0.016 ± 0.016 | -0.0245 ± 0.022 | -0.019 ± 0.038 | 0.001 ± 0.017 | -0.024 ± 0.014 | 0.016 ± 0.054 | -0.0095 ± 0.026 | -0.019 ± 0.0085 | -0.007 ± 0.014 | -0.031 ± 0.0071 | -0.0235 ± 0.018 | -0.017 ± 0.051 | -0.01 ± 0.013 | 0.007 ± 0.031 | 0.0205 ± 0.023 | -0.0205 ± 0.056 | -0.015 | 0.044 ± 0.02 | 0.005 ± 0.034 |
| KF3CT:uPA | 0.006 ± 0.011 | 0.008 ± 0.016 | 0.011 ± 0.028 | 0.001 ± 0.013 | 0.0085 ± 0.0092 | 0.012 ± 0.013 | 0.004 ± 0.0057 | 0.006 ± 0.011 | -0.0065 ± 0.025 | 0.016 ± 0.017 | 0.0145 ± 0.025 | 0.0055 ± 0.00071 | 0.0095 ± 0.0064 | 0.0045 ± 0.0078 | 0.004 ± 0.02 | -0.0325 ± 0.016 | 0.0025 ± 0.018 | -0.001 ± 0.037 | 0.0035 ± 0.0021 |
| LPS:CD40 | 0.031 ± 0.12 | 0.0455 ± 0.094 | 0.033 ± 0.1 | 0.041 ± 0.041 | -0.0115 ± 0.047 | -0.0155 ± 0.025 | 0.035 ± 0.024 | 0.0385 ± 0.04 | 0.028 ± 0.04 | -0.0175 ± 0.081 | -0.0145 ± 0.042 | -0.027 ± 0.0042 | -0.008 ± 0.0085 | 0.008 ± 0.048 | -0.017 ± 0.079 | -0.017 ± 0.024 | -0.028 ± 0.0099 | -0.0525 ± 0.0078 | -0.242 ± 0.026 |
| LPS:CD69 | -0.019 ± 0.031 | -0.0135 ± 0.0092 | -0.0335 ± 0.011 | 0.016 ± 0.028 | 0.0075 ± 0.053 | 0.03 ± 0.09 | -0.028 ± 0.085 | -0.038 ± 0.03 | -0.041 ± 0.067 | -0.0255 ± 0.069 | -0.032 ± 0.0071 | -0.047 ± 0.052 | -0.0365 ± 0.025 | -0.0375 ± 0.00071 | -0.0255 ± 0.023 | -0.028 ± 0.021 | -0.045 ± 0.011 | -0.0585 ± 0.00071 | -0.16 ± 0.054 |
| LPS:CD141/Thrombomodulin | 0.0105 ± 0.025 | 0.0045 ± 0.0078 | 0.0055 ± 0.012 | 0.046 ± 0.088 | 0.0005 ± 0.14 | -0.0095 ± 0.096 | 0.0715 ± 0.097 | 0.035 ± 0.023 | 0.06 ± 0.064 | -0.035 ± 0.025 | -0.028 ± 0.034 | 0.083 ± 0.014 | -0.024 ± 0.037 | -0.022 ± 0.0057 | -0.036 ± 0.02 | -0.0315 ± 0.0064 | 0.0015 ± 0.046 | -0.021 ± 0.0071 | 0.071 ± 0.047 |
| LPS:CD142/Tissue Factor | -0.0015 ± 0.0064 | 0.018 ± 0.011 | -0.0065 ± 0.019 | 0.019 ± 0.073 | -0.007 ± 0.099 | 0.0095 ± 0.13 | 0.0025 ± 0.087 | 0.041 ± 0.081 | 0.021 ± 0.082 | -0.023 ± 0.055 | 0.0075 ± 0.0078 | 0.11 ± 0.0092 | 0.0105 ± 0.0078 | -0.021 ± 0.025 | 0.006 ± 0.021 | -0.0155 ± 0.043 | -0.011 ± 0.021 | -0.06 ± 0.0042 | -0.177 ± 0.1 |
| LPS:CXCL8/IL-8 | 0.012 ± 0.027 | 0.011 ± 0.0099 | -0.0015 ± 0.005 | -0.0185 ± 0.005 | -0.0325 ± 0.037 | 0.017 ± 0.099 | 0.025 ± 0.076 | 0.026 ± 0.0057 | 0.0885 ± 0.037 | -0.005 ± 0.013 | 0.0425 ± 0.0092 | 0.159 ± 0.0057 | -0.0055 ± 0.019 | -0.0205 ± 0.023 | -0.0015 ± 0.019 | -0.022 ± 0.025 | 0.032 ± 0.018 | 0.0335 ± 0.054 | -0.176 ± 0.016 |
| LPS:IL-1alpha | 0.0065 ± 0.015 | 0.024 ± 0.016 | 0.0105 ± 0.012 | 0.0065 ± 0.04 | -0.017 ± 0.027 | -0.0125 ± 0.011 | 0.047 ± 0.035 | -0.0045 ± 0.0035 | 0.03 ± 0.048 | 0.0255 ± 0.018 | -0.0115 ± 0.039 | -0.063 ± 0.12 | 0.025 ± 0.034 | 0.0195 ± 0.05 | 0.0605 ± 0.023 | 0.0145 ± 0.026 | -0.0335 ± 0.032 | -0.004 ± 0.041 | -0.178 ± 0.1 |
| MyoF:CD106/VCAM-1 | -0.0105 ± 0.00071 | -0.0105 ± 0.005 | -0.0185 ± 0.011 | 0.0045 ± 0.0078 | 0.0065 ± 0.005 | 0.0095 ± 0.0021 | -0.0015 ± 0.0092 | -0.022 ± 0.02 | -0.0045 ± 0.015 | -0.0025 ± 0.0064 | 0.0025 ± 0.025 | -0.0195 ± 0.0092 | 0.006 ± 0.011 | 0.0035 ± 0.00071 | -0.0035 ± 0.0035 | 0.0005 ± 0.013 | -0.0005 ± 0.013 | -0.01 ± 0.0014 | -0.035 ± 0.0085 |
| MyoF:Collagen I | 0.0005 ± 0.0035 | -0.005 ± 0.0099 | 0.003 ± 0.016 | -0.005 ± 0.0057 | -0.014 ± 0.0099 | 0.0035 ± 0.015 | 0.012 ± 0.0028 | -0.0045 ± 0.016 | 0.019 ± 0.017 | -0.009 | -0.0185 ± 0.00071 | -0.0665 ± 0.00071 | -0.0025 ± 0.012 | -0.002 ± 0.0042 | 0.002 ± 0.0085 | -0.003 ± 0.02 | -0.006 ± 0.0028 | -0.003 ± 0.0057 | -0.0415 ± 0.00071 |
| MyoF:Collagen III | 0.0095 ± 0.018 | -0.0005 ± 0.03 | 0.009 ± 0.0099 | 0.003 ± 0.016 | 0.0025 ± 0.005 | -0.0035 ± 0.0092 | -0.007 ± 0.017 | -0.005 ± 0.018 | 0.005 ± 0.017 | -0.0155 ± 0.0035 | -0.0315 ± 0.00071 | -0.164 ± 0.035 | -0.0055 ± 0.022 | 0.003 ± 0.0071 | 0.0075 ± 0.005 | 0.0125 ± 0.037 | 0.02 ± 0.0057 | -0.0005 ± 0.0035 | -0.0455 ± 0.0021 |
| MyoF:PAI-I | -0.0045 ± 0.0035 | -0.0015 ± 0.00071 | 0.006 ± 0.0099 | -0.005 ± 0.011 | 0.007 ± 0.013 | 0.011 ± 0.0014 | -0.0045 ± 0.0064 | -0.0105 ± 0.00071 | 0.01 ± 0.011 | -0.018 ± 0.016 | -0.0325 ± 0.016 | -0.0415 ± 0.013 | 0.0125 ± 0.0078 | 0.007 ± 0.0099 | 0.009 ± 0.0014 | 0.019 ± 0.02 | 0.0335 ± 0.029 | 0.0505 ± 0.0035 | 0.063 ± 0.0085 |
| MyoF:SRB | -0.0155 ± 0.012 | -0.0245 ± 0.025 | 0.004 ± 0.0085 | 0 ± 0.0057 | -0.011 ± 0.0057 | -0.011 ± 0.0042 | 0.002 ± 0.0028 | -0.0045 ± 0.0035 | -0.002 ± 0.0057 | 0.005 ± 0.014 | -0.009 | -0.0695 ± 0.0092 | -0.005 ± 0.0014 | -0.0085 ± 0.0035 | 0 ± 0.018 | 0.0205 ± 0.016 | 0.029 ± 0.0042 | 0.0115 ± 0.012 | -0.018 ± 0.0085 |
| MyoF:alpha-SM Actin | -0.0005 ± 0.015 | 0.004 ± 0.018 | 0.0055 ± 0.021 | 0.0315 ± 0.037 | 0.0225 ± 0.046 | 0.0245 ± 0.043 | 0.024 ± 0.0085 | 0.0155 ± 0.013 | 0.025 ± 0.02 | 0.0635 ± 0.0064 | 0.0665 ± 0.032 | -0.0065 ± 0.03 | 0.0065 ± 0.021 | 0 ± 0.054 | 0.0245 ± 0.011 | 0.01 ± 0.0057 | -0.0065 ± 0.013 | 0.006 ± 0.025 | 0.0175 ± 0.0021 |
